Measurements reported in US20210330611A1, “THERAPY FOR NEUROLOGICAL DISEASES/DISORDERS” (priority 2020, published 2021).

What was measured:
[1] = tested on: mouse BMDMs; experiment: ROS production (DHE) in fibrin-stimulated mouse BMDMs; format: cell-based; conditions: fibrin 24 h, 5 μM inhibitor, FIG. 6b
Description: Bone marrow—derived macrophage cultures. […]. In brief, bone-marrow cells were isolated from tibia and femur of C57BL/6 mice, Ggt1^+/+ mice or Ggt1^dwg/dwg mice and cultured in RPMI-1640 medium supplemented with 10% FBS, 1% penicillin-streptomycin (Corning), and 10 ng/ml murine M-CSF (14-8983-80, Thermo Fisher Scientific). On days 6-7, adherent BMDMs were harvested by adding PBS with 5 mM EDTA to the plates and used for assays.
Human macrophage cultures. Human peripheral blood mononuclear cells (PBMCs) were purchased from AllCells, LLC (Alameda, Calif.). To differentiate PBMC into monocyte-derived macrophages, 2×10^6 PBMC/mL were plated in RPMI-1640 media supplemented with 10% FBS, 1% penicillin-streptomycin (Corning), and 50 ng/ml human M-CSF (300-25, Peprotech) in tissue-culture treated dishes (Corning). After 24 h, non-adherent cells were removed, and adherent cells were cultivated for 7-8 additional days at 37° C. in 5% CO2 to promote their full differentiation into macrophages. Oxidant detection with DHE. Intracellular concentrations of ROS were measured using dihydroethidium (DHE) as described (9). […] The DHE fluorescence was detected at an excitation/emission wavelength of 518 nm/605 nm using a SpectraMax M5 microplate reader (Molecular Devices) with SoftMax Pro 5.2 software (Phoenix Technologies Ltd.).

[2] = tested on: human macrophages; experiment: ROS production (DHE) in fibrin-stimulated human macrophages; format: cell-based; conditions: fibrin 24 h, 5 μM inhibitor, FIG. 6b
Description: Human macrophage cultures. Human peripheral blood mononuclear cells (PBMCs) were purchased from AllCells, LLC (Alameda, Calif.). To differentiate PBMC into monocyte-derived macrophages, 2×10^6 PBMC/mL were plated in RPMI-1640 media supplemented with 10% FBS, 1% penicillin-streptomycin (Corning), and 50 ng/ml human M-CSF (300-25, Peprotech) in tissue-culture treated dishes (Corning). After 24 h, non-adherent cells were removed, and adherent cells were cultivated for 7-8 additional days at 37° C. in 5% CO2 to promote their full differentiation into macrophages. Oxidant detection with DHE. Intracellular concentrations of ROS were measured using dihydroethidium (DHE) as described (9). Cultured BMDMs or human macrophages were incubated in medium containing 5 μM DHE (Invitrogen) for 30 min Cells were plated on 96-well, black μ-clear-bottom microtiter plates (Greiner Bio-One) pre-coated with 25 μg/ml fibrin. For GGT inhibition, BMDMs or human macrophages were pre-incubated with 5 μM acivicin or GGsTop for 1 h, and the cells were plated on fibrin-coated 96-well plates as described above. PBS was used as vehicle control. Cells were then incubated for 24-48 h and fixed with 4% PFA for 10 min. The DHE fluorescence was detected at an excitation/emission wavelength of 518 nm/605 nm using a SpectraMax M5 microplate reader (Molecular Devices) with SoftMax Pro 5.2 software (Phoenix Technologies Ltd.).

[3] = target: T1, GGT (Mus musculus, UniProt Q60928); experiment: GGT activity assay in fibrin-stimulated BMDMs (enzymatic kit, ProteoGREEN-gGlu probe); format: cell-based; conditions: FIG. 6c, FIG. 13A, B
T1 construct: GGT activity in BMDMs left unstimulated or stimulated with fibrin after acivicin or vehicle control treatment; endogenous in cells; host or cells: mouse bone marrow-derived macrophages (BMDMs), fibrin-stimulated
T1 sequence (Q60928 380-568): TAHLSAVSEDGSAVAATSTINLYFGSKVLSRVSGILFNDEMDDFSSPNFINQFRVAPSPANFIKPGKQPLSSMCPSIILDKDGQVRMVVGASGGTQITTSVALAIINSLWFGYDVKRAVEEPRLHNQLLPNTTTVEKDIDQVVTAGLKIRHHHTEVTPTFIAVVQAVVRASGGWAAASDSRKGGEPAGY
T1 sequence (Q60928 1-379): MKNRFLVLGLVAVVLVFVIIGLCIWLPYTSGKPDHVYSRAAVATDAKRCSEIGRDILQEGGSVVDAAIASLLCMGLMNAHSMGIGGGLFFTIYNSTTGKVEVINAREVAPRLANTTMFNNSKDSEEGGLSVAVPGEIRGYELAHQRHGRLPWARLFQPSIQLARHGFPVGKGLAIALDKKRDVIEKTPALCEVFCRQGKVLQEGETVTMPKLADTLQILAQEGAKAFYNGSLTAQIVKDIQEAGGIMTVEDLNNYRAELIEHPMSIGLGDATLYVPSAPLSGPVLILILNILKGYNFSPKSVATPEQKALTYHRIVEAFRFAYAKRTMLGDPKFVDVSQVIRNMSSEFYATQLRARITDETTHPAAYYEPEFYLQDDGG
Description: GGT activity assay. GGT activity was measured using the MaxDiscovery gamma-Glutamyl Transferase (GGT) Enzymatic Assay Kit (Bioo Scientific) according to the manufacturer's protocol. […]. For in vivo GGT activity assay, spinal cord tissues from the onset of MOG35-55 EAE or LPS-injected substantia nigra area at 12 h were prepared. Tissues were homogenized in 0.1 M Tris-HCl and centrifuged at 13,000 g for 30 min at 4° C. The supernatant was collected and subsequently assessed for GGT activity. The absorbance at 405 nm was detected with a SpectraMax M5 microplate reader (Molecular Devices) with SoftMax Pro 5.2 software (Phoenix Technologies Ltd.). The GGT activity in IU/1 was calculated following the manufacturer's protocol by multiplying the average increase in absorbance at 405 nm over 10 min GGT activity was also measured using a fluorescent probe, ProteoGREEN-gGlu (Goryo Chemical, Hokkaido, Japan), according to the manufacturer's protocol. Cultured BMDMs were plated on 96-well, black μ-clear-bottom microtiter plates (Greiner Bio-One) pre-coated with 25 μg/ml fibrin. […] The fluorescence intensity (excitation/emission filter pairs of 488 nm/520 nm) was measured using a SpectraMax M5 microplate reader (Molecular Devices) with SoftMax Pro 5.2 software (Phoenix Technologies).

[4] = tested on: intracellular GSH; format: cell-based, mouse
Description: Real-time imaging of glutathione. The real-time GSH dynamics in living BMDMs was determined with the fluorescent GSH probe, RealThiol RT-AM as described (37). Cells were plated on 2-well chamber slide (Nunc) pre-coated with 25 μg/ml fibrin. Cells were stimulated with fibrin with or without 5 μM acivicin or GGsTop. The GSH synthesis inhibitor, buthionine sulfoximine (BSO, Sigma-Aldrich) was used as positive control for reducing intracellular GSH levels at 100 μM. After 24 h incubation, cells were loaded with 1 μM RT-AM probe and were incubated for 5 min before imaging. The cells were kept at 37° C. during the entire experiment. […] For each independent experiment, laser power and detector settings were set using the control/untreated cells incubated with RT-AM alone as reference. All settings were kept constant throughout the experiment. […] The ratio calculated for each treatment was expressed as percentage from that of the untreated cells (control).

[5] = tested on: MOG35-55 EAE; experiment: Active MOG35-55 EAE, clinical scores; format: in vivo, mouse; conditions: prophylactic, 5 mg/kg i.p. daily from day 0, FIG. 14B
[6] = tested on: renal reperfusion injury; conditions: cited from earlier work

COP(=O)(CCC(N)C(=O)O)Oc1cccc(CC(=O)O)c1 (stereo not shown) [GGsTop]
ROS generation (DHE) in mouse macrophages [1]: inhibited
ROS generation (DHE) in human macrophages [2]: inhibited
fibrin-induced GGT activity in BMDMs [3]: inhibited
fibrin-induced degradation of glutathione (RealThiol F405/F488) [4]: inhibited
neurologic signs [5]: reduced
oxidative stress markers [6]: reduced
renal reperfusion injury [6]: protected
